Each structure is given as a SMILES string.

The test system of the assay is Triticum aestivum. The experiment in a line: Growth inhibition of etiolated wheat coleoptiles at 1000 uM relative to control. The format is functional. The following applies: read-out: GI.

Regarding `CCCCCc1cccc(=O)o1`, the inhibition of growth at 1000 µM worked out at 100%.

Consider `CCCCCC[C@H](O)[C@@H]1CC[C@@H]2[C@H](O)CC[C@H](O)[C@@]2(O)O1` [KONINGININ G], for which the inhibition of growth at 1000 µM was 56%.

Values taken from ChEMBL document CHEMBL1157998, “Koninginin G, a new metabolite from trichoderma aureoviride” (1999).
